# Laboratory results as given in paper PMC11084659, “The Development of CDC25A-Derived Phosphoseryl Peptides That Bind 14-3-3ε with High Affinities” (International Journal of Molecular Sciences, 2024).
# Where a SMILES comes first, the peptide text is derived from it. [ ]: non-standard residue; d: D form. pS = N[C@@H](COP(=O)(O)O)C(=O)O
# T1: 14-3-3ε (Homo sapiens, UniProt P62258)
# T1 construct: purchased Novus Biologicals
# T1 sequence (P62258 1-255): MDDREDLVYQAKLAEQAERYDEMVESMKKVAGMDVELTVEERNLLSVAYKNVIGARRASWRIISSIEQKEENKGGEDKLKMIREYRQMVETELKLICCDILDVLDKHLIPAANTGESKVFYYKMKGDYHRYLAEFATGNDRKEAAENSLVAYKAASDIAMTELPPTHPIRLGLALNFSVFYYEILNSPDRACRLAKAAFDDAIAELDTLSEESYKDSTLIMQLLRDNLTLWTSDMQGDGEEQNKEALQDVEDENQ
# T2: (His)6-14-3-3ε (UniProt P62258 1-255)
# T2 construct: 14-3-3 protein epsilon; also called His-tagged protein; source: bought: Novus Biologicals
# T2 sequence (looked up): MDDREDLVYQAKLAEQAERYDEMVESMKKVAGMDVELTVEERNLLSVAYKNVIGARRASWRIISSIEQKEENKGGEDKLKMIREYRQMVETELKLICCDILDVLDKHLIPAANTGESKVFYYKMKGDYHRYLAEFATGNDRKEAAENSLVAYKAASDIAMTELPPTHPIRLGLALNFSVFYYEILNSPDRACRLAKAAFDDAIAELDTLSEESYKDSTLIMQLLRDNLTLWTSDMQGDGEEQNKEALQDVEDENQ
# Tests used:
# 14-3-3ε [1] = target: T1, 14-3-3ε; test: Surface plasmon resonance (SPR), steady-state affinity on immobilized His6-14-3-3ε; format: binding
# Procedure: (§1) The binding of the peptides to 14-3-3ε was further assessed using differential scanning fluorometry (DSF) and surface plasmon resonance (SPR) measurements. DSF was used to determine the effects of the peptides on the melting temperature (Tm) of 14-3-3ε (Table 4, Figure 6 and Figure S4). The pS peptide caused an increase in melting temperature (ΔTm) of 0.35 ± 0.16 °C, while pS(174–182) induced no ΔTm. The Phe and Tyr substitutions in position 176 led to ΔTm of 1.08 ± 0.34 °C and 1.10 ± 0.32 °C, respectively. Lys, Phe, and Tyr substitutions in position 179 led to ΔTm of between 0.00 and 0.23 °C (Table 4). To quantitatively determine the affinity of the peptides for 14-3-3ε protein using SPR, His-tagged protein was immobilized on a nitrilotriacetic acid (Ni-NTA) sensor chip, and then binding of the peptides analogs to the protein was determined.
# The SPR analyses were carried out using the Biacore 8K surface plasmon resonance instrument (Cytiva, Marlborough, MA, USA). A total of 100 nM His6-14-3-3ε was immobilized on the NiCl2-activated NTA chip (Cytiva, Marlborough, MA, USA) as previously described. Then, different concentrations of peptide in the range of 0−500 μM (depending on the peptide) were injected. The experiments were performed in 20 mM TRIS, 150 mM NaCl, 50 μM EDTA, 0.005% Tween 20, and pH 7.4 buffer. The affinities of the peptides binding to 14-3-3ε were determined by fitting the data to a steady-state binding model using Biacore Insight Evaluation Software (version 5.0.18.22102).
# 14-3-3ε [2] = target: T1, 14-3-3ε; test: Differential scanning fluorimetry (DSF), melting temperature shift of 14-3-3ε; format: binding; settings: 30 μM peptide, 2 µM 14-3-3ε, SYPRO-orange, 20 mM TRIS, 150 mM NaCl, 1 mM DTT, pH 7.4, average ± SD of n ≥ 5
# Procedure: as §1
# Thermal unfolding of 14-3-3ε (2 µM) and its complex with peptides (30 μM) was monitored in the presence of a hydrophobic protein-binding dye, SYPRO-orange (Invitrogen, Carlsbad, CA, USA), using the BioRad CFX384 Touchreal-time PCR (Hercules, CA, USA). The assays were performed in 20 mM TRIS, 150 mM NaCl, 1 mM DTT, and pH 7.4 buffer. The first derivative of the melting curves was plotted using GraphPad Prism software, version 10.0.3 to determine Tm of the protein. ΔTm was determined as the difference between Tm of 14-3-3ε in the presence of a peptide and Tm of 14-3-3ε alone.
# cSCC cells = settings: read-out: IC50, death of cSCC cells; cited from earlier work
# (His)6-14-3-3ε [3] = target: T2, (His)6-14-3-3ε; test: differential scanning fluorimetry; 14-3-3ε 2 µM with peptide 30 μM, SYPRO-orange; 20 mM TRIS, 150 mM NaCl, 1 mM DTT, pH 7.4; ΔTm = Tm with peptide minus Tm of 14-3-3ε alone; settings: both partners purified
# (His)6-14-3-3ε [4] = target: T2, (His)6-14-3-3ε; test: SPR; Biacore 8K; 100 nM His6-14-3-3ε immobilized on NiCl2-activated NTA chip; peptides injected at 0-500 μM (depending on the peptide); 20 mM TRIS, 150 mM NaCl, 50 μM EDTA, 0.005% Tween 20, pH 7.4; steady-state binding model; settings: both partners purified
# (His)6-14-3-3ε [5] = target: T2, (His)6-14-3-3ε; test: as above; settings: both partners purified; remark: listed apart in the source
Molecule,ΔG ± SD (free energy of binding derived from KD) (14-3-3ε [1]) [kcal/mol],ΔTm (melting temperature shift of 14-3-3ε) (14-3-3ε [2]) [°C],Kd ((His)6-14-3-3ε [4]) [µM],other results
CC(=O)N[C@@H](CCC(N)=O)C(=O)N[C@@H](CCCNC(=N)N)C(=O)N[C@@H](CCC(N)=O)C(=O)N[C@@H](CCCCN)C(=O)N[C@@H](COP(=O)(O)O)C(=O)N[C@@H](C)C(=O)N1CCC[C@H]1C(=O)N[C@@H](C)C(=O)N[C@@H](CCCNC(=N)N)C(N)=O [[Lys^177]pS(174–182)] (Ac-QRQK[pS]APAR-NH2),-7.199 ± 0.055,0.23 ± 0.09,–,–
CC(=O)N[C@@H](CCC(N)=O)C(=O)N[C@@H](CCCNC(=N)N)C(=O)N[C@@H](Cc1ccccc1)C(=O)N[C@@H](CC(N)=O)C(=O)N[C@@H](COP(=O)(O)O)C(=O)N[C@@H](C)C(=O)N1CCC[C@H]1C(=O)N[C@@H](C)C(=O)N[C@@H](CCCNC(=N)N)C(N)=O [[Phe^176]pS(174–182)] (Ac-QRFN[pS]APAR-NH2),–,1.08 ± 0.34,–,–
CC(=O)N[C@@H](CCC(N)=O)C(=O)N[C@@H](CCCNC(=N)N)C(=O)N[C@@H](CCC(N)=O)C(=O)N[C@@H](CC(N)=O)C(=O)N[C@@H](COP(=O)(O)O)C(=O)N[C@@H](Cc1ccccc1)C(=O)N1CCC[C@H]1C(=O)N[C@@H](C)C(=O)N[C@@H](CCCNC(=N)N)C(N)=O [[Phe^179]pS(174–182)] (Ac-QRQN[pS]FPAR-NH2),-5.772 ± 0.048,0,–,–
CC(=O)N[C@@H](CCC(N)=O)C(=O)N[C@@H](CCCNC(=N)N)C(=O)N[C@@H](Cc1ccc(O)cc1)C(=O)N[C@@H](CC(N)=O)C(=O)N[C@@H](COP(=O)(O)O)C(=O)N[C@@H](C)C(=O)N1CCC[C@H]1C(=O)N[C@@H](C)C(=O)N[C@@H](CCCNC(=N)N)C(N)=O [[Tyr^176]pS(174–182)] (Ac-QRYN[pS]APAR-NH2),-8.786 ± 0.11,1.10 ± 0.32,–,–
CC(=O)N[C@@H](CCC(N)=O)C(=O)N[C@@H](CCCNC(=N)N)C(=O)N[C@@H](CCC(N)=O)C(=O)N[C@@H](CC(N)=O)C(=O)N[C@@H](COP(=O)(O)O)C(=O)N[C@@H](Cc1ccc(O)cc1)C(=O)N1CCC[C@H]1C(=O)N[C@@H](C)C(=O)N[C@@H](CCCNC(=N)N)C(N)=O [[Tyr^179]pS(174–182)] (Ac-QRQN[pS]YPAR-NH2),-5.37 ± 0.0932,0,–,–
CC(=O)N[C@@H](CCC(N)=O)C(=O)N[C@@H](CCCNC(=N)N)C(=O)N[C@@H](CCC(N)=O)C(=O)N[C@@H](CC(N)=O)C(=O)N[C@@H](COP(=O)(O)O)C(=O)N[C@@H](C)C(=O)N1CCC[C@H]1C(=O)N[C@@H](C)C(=O)N[C@@H](CCCNC(=N)N)C(N)=O [pS(174–182)] (Ac-QRQN[pS]APAR-NH2),-6.874 ± 0.055,–,–,–
CSCC[C@H](NC(=O)[C@H](CCCNC(=N)N)NC(=O)[C@H](C)NC(=O)[C@@H]1CCCN1C(=O)[C@H](C)NC(=O)[C@H](COP(=O)(O)O)NC(=O)[C@H](CC(N)=O)NC(=O)[C@H](CCC(N)=O)NC(=O)[C@H](CCCNC(=N)N)NC(=O)[C@H](CCC(N)=O)NC(=O)[C@@H](NC(C)=O)[C@@H](C)O)C(=O)N[C@@H](CC(C)C)C(=O)N[C@@H](CO)C(=O)N[C@@H](CO)C(N)=O [pS] (Ac-TQRQN[pS]APARMLSS-NH2),-9.073 ± 0.022,0.35 ± 0.16,–,IC50 (cSCC cells): 29 µM
"Ac-TQRQN[pS]APARMLSS-NH2 (SMILES CSCC[C@H](NC(=O)[C@H](CCCNC(=N)N)NC(=O)[C@H](C)NC(=O)[C@@H]1CCCN1C(=O)[C@H](C)NC(=O)[C@H](COP(=O)(O)O)NC(=O)[C@H](CC(N)=O)NC(=O)[C@H](CCC(N)=O)NC(=O)[C@H](CCCNC(=N)N)NC(=O)[C@H](CCC(N)=O)NC(=O)[C@@H](NC(C)=O)[C@@H](C)O)C(=O)N[C@@H](CC(C)C)C(=O)N[C@@H](CO)C(=O)N[C@@H](CO)C(N)=O, CDC25A residues 173-186, with phosphoserine at 178; also called parent pS peptide; source: synthetic peptide (Biosynth International Inc.), >95% purity) [pS peptide, CDC25A residues 173–186]",–,–,0.22,ΔTm ((His)6-14-3-3ε [3]): 0.35 °C
"Ac-QRQN[pS]APAR-NH2 (SMILES CC(=O)N[C@@H](CCC(N)=O)C(=O)N[C@@H](CCCNC(=N)N)C(=O)N[C@@H](CCC(N)=O)C(=O)N[C@@H](CC(N)=O)C(=O)N[C@@H](COP(=O)(O)O)C(=O)N[C@@H](C)C(=O)N1CCC[C@H]1C(=O)N[C@@H](C)C(=O)N[C@@H](CCCNC(=N)N)C(N)=O, CDC25A residues 174-182, with phosphoserine at 178; also called Ac-CDC25A(174–182)-NH2; source: synthetic peptide (Biosynth International Inc.), >95% purity) [pS(174–182)]",–,–,9.05,Kd ((His)6-14-3-3ε [5]): 6.56 ± 2.16 µM
"Ac-QRQN[pS]FPAR-NH2 (SMILES CC(=O)N[C@@H](CCC(N)=O)C(=O)N[C@@H](CCCNC(=N)N)C(=O)N[C@@H](CCC(N)=O)C(=O)N[C@@H](CC(N)=O)C(=O)N[C@@H](COP(=O)(O)O)C(=O)N[C@@H](Cc1ccccc1)C(=O)N1CCC[C@H]1C(=O)N[C@@H](C)C(=O)N[C@@H](CCCNC(=N)N)C(N)=O, CDC25A residues 174-182, with phosphoserine at 178 and Ala179 replaced by Phe; source: synthetic peptide (Biosynth International Inc.), >95% purity) [[Phe^179]pS(174–182)]",–,–,58.3,–
"Ac-QRFN[pS]APAR-NH2 (SMILES CC(=O)N[C@@H](CCC(N)=O)C(=O)N[C@@H](CCCNC(=N)N)C(=O)N[C@@H](Cc1ccccc1)C(=O)N[C@@H](CC(N)=O)C(=O)N[C@@H](COP(=O)(O)O)C(=O)N[C@@H](C)C(=O)N1CCC[C@H]1C(=O)N[C@@H](C)C(=O)N[C@@H](CCCNC(=N)N)C(N)=O, CDC25A residues 174-182, with phosphoserine at 178 and Gln176 replaced by Phe; source: synthetic peptide (Biosynth International Inc.), >95% purity) [[Phe^176]pS(174–182)]",–,–,0.36,ΔTm ((His)6-14-3-3ε [3]): 1.08 °C
"Ac-QRQK[pS]APAR-NH2 (SMILES CC(=O)N[C@@H](CCC(N)=O)C(=O)N[C@@H](CCCNC(=N)N)C(=O)N[C@@H](CCC(N)=O)C(=O)N[C@@H](CCCCN)C(=O)N[C@@H](COP(=O)(O)O)C(=O)N[C@@H](C)C(=O)N1CCC[C@H]1C(=O)N[C@@H](C)C(=O)N[C@@H](CCCNC(=N)N)C(N)=O, CDC25A residues 174-182, with phosphoserine at 178 and Asn177 replaced by Lys; source: synthetic peptide (Biosynth International Inc.), >95% purity) [[Lys^177]pS(174–182)]",–,–,5.23,–
"Ac-QRYN[pS]APAR-NH2 (SMILES CC(=O)N[C@@H](CCC(N)=O)C(=O)N[C@@H](CCCNC(=N)N)C(=O)N[C@@H](Cc1ccc(O)cc1)C(=O)N[C@@H](CC(N)=O)C(=O)N[C@@H](COP(=O)(O)O)C(=O)N[C@@H](C)C(=O)N1CCC[C@H]1C(=O)N[C@@H](C)C(=O)N[C@@H](CCCNC(=N)N)C(N)=O, CDC25A residues 174-182, with phosphoserine at 178 and Gln176 replaced by Tyr; source: synthetic peptide (Biosynth International Inc.), >95% purity) [[Tyr^176]pS(174–182)]",–,–,0.41,ΔTm ((His)6-14-3-3ε [3]): 1.1 °C
"Ac-QRQN[pS]YPAR-NH2 (SMILES CC(=O)N[C@@H](CCC(N)=O)C(=O)N[C@@H](CCCNC(=N)N)C(=O)N[C@@H](CCC(N)=O)C(=O)N[C@@H](CC(N)=O)C(=O)N[C@@H](COP(=O)(O)O)C(=O)N[C@@H](Cc1ccc(O)cc1)C(=O)N1CCC[C@H]1C(=O)N[C@@H](C)C(=O)N[C@@H](CCCNC(=N)N)C(N)=O, CDC25A residues 174-182, with phosphoserine at 178 and Ala179 replaced by Tyr; source: synthetic peptide (Biosynth International Inc.), >95% purity) [[Tyr^179]pS(174–182)]",–,–,116,–
